Measurements reported in ChEMBL document CHEMBL2396621, “Design, synthesis and biological evaluation of 2-mercapto-3-phenethylquinazoline bearing anilide fragments as potential antitumor agents: molecular docking study” (2013).

Tests used:
Format in all cases: functional
T47D = test: Cytotoxicity against human T47D cells assessed as growth inhibition at 10 uM after 48 hrs by coulter counter analysis; details: read-out: GI
SN12C = test: Cytotoxicity against human SN12C cells assessed as growth inhibition at 10 uM after 48 hrs by coulter counter analysis; details: read-out: GI
Malme-3M = test: Cytotoxicity against human MALME-3M cells assessed as growth inhibition at 10 uM after 48 hrs by coulter counter analysis; details: read-out: GI
A549 = test: Cytotoxicity against human A549 cells assessed as growth inhibition at 10 uM after 48 hrs by coulter counter analysis; details: A549, 48 h, read-out: GI
RXF 393 = test: Cytotoxicity against human RXF393 cells assessed as growth inhibition at 10 uM after 48 hrs by coulter counter analysis; details: RXF 393, 48 h, read-out: GI
SK-OV-3 = test: Cytotoxicity against human SKOV3 cells assessed as growth inhibition at 10 uM after 48 hrs by coulter counter analysis; details: SK-OV-3, 48 h, read-out: GI
SF-539 = test: Cytotoxicity against human SF539 cells assessed as growth inhibition at 10 uM after 48 hrs by coulter counter analysis; details: SF-539, 48 h, read-out: GI
MDA-MB-231 = test: Cytotoxicity against human MDA-MB-231 cells assessed as growth inhibition at 10 uM after 48 hrs by coulter counter analysis; details: MDA-MB-231, 48 h, read-out: GI
OVCAR-5 = test: Cytotoxicity against human OVCAR5 cells assessed as growth inhibition at 10 uM after 48 hrs by coulter counter analysis; details: OVCAR-5, 48 h, read-out: GI
A498 = test: Cytotoxicity against human A498 cells assessed as growth inhibition at 10 uM after 48 hrs by coulter counter analysis; details: A498, 48 h, read-out: GI
SW-620 = test: Cytotoxicity against human SW620 cells assessed as growth inhibition at 10 uM after 48 hrs by coulter counter analysis; details: SW-620, 48 h, read-out: GI
MCF7 = test: Cytotoxicity against human MCF7 cells assessed as growth inhibition at 10 uM after 48 hrs by coulter counter analysis; details: MCF7, 48 h, read-out: GI
SNB-19 = test: Cytotoxicity against human SNB19 cells assessed as growth inhibition at 10 uM after 48 hrs by coulter counter analysis; details: SNB-19, 48 h, read-out: GI
NCI-H522 = test: Cytotoxicity against human NCI-H522 cells assessed as growth inhibition at 10 uM after 48 hrs by coulter counter analysis; details: NCI-H522, 48 h, read-out: GI
BT-549 = test: Cytotoxicity against human BT549 cells assessed as growth inhibition at 10 uM after 48 hrs by coulter counter analysis; details: BT-549, 48 h, read-out: GI

In the case of O=C(CSc1nc2ccccc2c(=O)n1CCc1ccccc1)Nc1ccc(Cl)cc1, the inhibition of growth at 10 µM (T47D) is reported as 56%, the inhibition of growth at 10 µM (SN12C) is reported as 13% and the inhibition of growth at 10 µM (Malme-3M) is reported as under 10%. It also gave an inhibition of growth at 10 µM (A549) of 16%, an inhibition of growth at 10 µM (RXF 393) of 22% and an inhibition of growth at 10 µM (SK-OV-3) of 43%. The inhibition of growth at 10 µM (SF-539) was 41%, the inhibition of growth at 10 µM (MDA-MB-231) was 37% and the inhibition of growth at 10 µM (OVCAR-5) was under 10%. It also gave an inhibition of growth at 10 µM (A498) of under 10%, an inhibition of growth at 10 µM (SW-620) of 11% and an inhibition of growth at 10 µM (MCF7) of 30%. It also gave an inhibition of growth at 10 µM (SNB-19) of 30% and an inhibition of growth at 10 µM (NCI-H522) of 45%.
With O=C(CSc1nc2ccccc2c(=O)n1CCc1ccccc1)Oc1ccc(Cl)cc1 the inhibition of growth at 10 µM (T47D) was 14%, the inhibition of growth at 10 µM (SN12C) was under 10% and the inhibition of growth at 10 µM (Malme-3M) was under 10%. It also gave an inhibition of growth at 10 µM (BT-549) of 15%, an inhibition of growth at 10 µM (A549) of under 10% and an inhibition of growth at 10 µM (RXF 393) of under 10%. The inhibition of growth at 10 µM (SK-OV-3) was 28%, the inhibition of growth at 10 µM (SF-539) was under 10% and the inhibition of growth at 10 µM (MDA-MB-231) was 33%. The inhibition of growth at 10 µM (OVCAR-5) was under 10%, the inhibition of growth at 10 µM (A498) was 10% and the inhibition of growth at 10 µM (SW-620) was under 10%. For the same compound, the inhibition of growth at 10 µM (MCF7) was 34%, the inhibition of growth at 10 µM (SNB-19) was under 10% and the inhibition of growth at 10 µM (NCI-H522) was 37%.
CCOC(=O)c1ccc(NC(=O)CSc2nc3ccccc3c(=O)n2CCc2ccccc2)cc1 was tested, and the inhibition of growth at 10 µM (T47D) was 17%, the inhibition of growth at 10 µM (SN12C) was under 10% and the inhibition of growth at 10 µM (Malme-3M) was 23%. It also gave an inhibition of growth at 10 µM (BT-549) of 12%, an inhibition of growth at 10 µM (A549) of 27% and an inhibition of growth at 10 µM (RXF 393) of 14%. It also gave an inhibition of growth at 10 µM (SK-OV-3) of 19%, an inhibition of growth at 10 µM (SF-539) of under 10% and an inhibition of growth at 10 µM (MDA-MB-231) of 48%. For the same compound, the inhibition of growth at 10 µM (OVCAR-5) was 15%, the inhibition of growth at 10 µM (A498) was under 10% and the inhibition of growth at 10 µM (SW-620) was 11%. The inhibition of growth at 10 µM (MCF7) was 12%, the inhibition of growth at 10 µM (SNB-19) was 36% and the inhibition of growth at 10 µM (NCI-H522) was 26%.
Compound COc1cc(OC(=O)CSc2nc3ccccc3c(=O)n2CCc2ccccc2)cc(OC)c1OC has an inhibition of growth at 10 µM (T47D) of 26%, an inhibition of growth at 10 µM (SN12C) of 10% and an inhibition of growth at 10 µM (Malme-3M) of under 10%. It also gave an inhibition of growth at 10 µM (BT-549) of 10%, an inhibition of growth at 10 µM (A549) of 10% and an inhibition of growth at 10 µM (RXF 393) of under 10%. It also gave an inhibition of growth at 10 µM (SK-OV-3) of under 10%, an inhibition of growth at 10 µM (SF-539) of under 10% and an inhibition of growth at 10 µM (MDA-MB-231) of 20%. For the same compound, the inhibition of growth at 10 µM (OVCAR-5) was under 10%, the inhibition of growth at 10 µM (A498) was under 10% and the inhibition of growth at 10 µM (SW-620) was under 10%. The inhibition of growth at 10 µM (MCF7) was 34%, the inhibition of growth at 10 µM (SNB-19) was under 10% and the inhibition of growth at 10 µM (NCI-H522) was under 10%.
O=C(CSc1nc2ccccc2c(=O)n1CCc1ccccc1)Nc1ccccc1C(=O)O was tested, and the inhibition of growth at 10 µM (T47D) was 27%, the inhibition of growth at 10 µM (SN12C) was under 10% and the inhibition of growth at 10 µM (Malme-3M) was 18%. The inhibition of growth at 10 µM (BT-549) was 10%, the inhibition of growth at 10 µM (A549) was 46% and the inhibition of growth at 10 µM (RXF 393) was 25%. It also gave an inhibition of growth at 10 µM (SK-OV-3) of 53%, an inhibition of growth at 10 µM (SF-539) of 44% and an inhibition of growth at 10 µM (MDA-MB-231) of 45%. It also gave an inhibition of growth at 10 µM (OVCAR-5) of under 10%, an inhibition of growth at 10 µM (A498) of 26% and an inhibition of growth at 10 µM (SW-620) of 21%. For the same compound, the inhibition of growth at 10 µM (MCF7) was 21%, the inhibition of growth at 10 µM (SNB-19) was 40% and the inhibition of growth at 10 µM (NCI-H522) was 85%.
In the case of CC(=O)c1ccc(NC(=O)CSc2nc3ccccc3c(=O)n2CCc2ccccc2)cc1, the inhibition of growth at 10 µM (T47D) is reported as 19%, the inhibition of growth at 10 µM (SN12C) is reported as 13% and the inhibition of growth at 10 µM (Malme-3M) is reported as 13%. It also gave an inhibition of growth at 10 µM (BT-549) of under 10%, an inhibition of growth at 10 µM (A549) of 29% and an inhibition of growth at 10 µM (RXF 393) of under 10%. The inhibition of growth at 10 µM (SK-OV-3) was 17%, the inhibition of growth at 10 µM (SF-539) was under 10% and the inhibition of growth at 10 µM (MDA-MB-231) was 39%. The inhibition of growth at 10 µM (OVCAR-5) was 10%, the inhibition of growth at 10 µM (A498) was under 10% and the inhibition of growth at 10 µM (SW-620) was 14%. For the same compound, the inhibition of growth at 10 µM (MCF7) was 16%, the inhibition of growth at 10 µM (SNB-19) was 20% and the inhibition of growth at 10 µM (NCI-H522) was 51%.
